Source: article PMC10707934, “Design and Synthesis of Novel α-Methylchalcone Derivatives, Anti-Cervical Cancer Activity, and Reversal of Drug Resistance in HeLa/DDP Cells” (Molecules, 2023)

System: not given
Experiment: not given
Settings: not given

First: COc1cc(OC)c(OC)cc1/C=C(\C)C(=O)c1ccc(Cl)c(Cl)c1 [Compound 3a, (E)-1-(3,4-Dichlorophenyl)-2-methyl-3-(2,4,5-trimethoxyphenyl)prop-2-en-1-one]
Second: COc1cc(OC)c(/C=C(\C)C(=O)c2ccc(Cl)c(Cl)c2)c(OC)c1 [Compound 3d, (E)-1-(3,4-Dichlorophenyl)-2-methyl-3-(2,4,6-trimethoxyphenyl)prop-2-en-1-one]
The melting point of the first is higher: 129.6 to 130.5 °C for the first, 67.1 to 67.8 °C for the second.

First: COc1ccc(/C=C(\C)C(=O)c2ccc(Cl)c(Cl)c2)c(OC)c1OC [Compound 3c, (E)-1-(3,4-Dichlorophenyl)-2-methyl-3-(2,3,4-trimethoxyphenyl)prop-2-en-1-one]
Second: COc1cccc(/C=C(\C)C(=O)c2ccc(Cl)c(Cl)c2)c1OC [Compound 3i, (E)-1-(3,4-Dichlorophenyl)-3-(2,3-dimethoxyphenyl)-2-methylprop-2-en-1-one]
The melting point of the first is higher: 114.1 to 115.5 °C for the first, 99.8 to 100.7 °C for the second.

Compared with `COc1cc(OC)c(/C=C(\C)C(=O)c2ccc(Cl)cc2Cl)c(OC)c1` [Compound 3e, (E)-1-(2,4-dichlorophenyl)-2-methyl-3-(2,4,6-trimethoxyphenyl)prop-2-en-1-one], `COc1cccc(OC)c1/C=C(\C)C(=O)c1ccc(Cl)c(Cl)c1` [Compound 3g, (E)-1-(3,4-dichlorophenyl)-3-(2,6-dimethoxyphenyl)-2-methylprop-2-en-1-one] is higher in melting point: 104.6 to 105.7 °C for the first, 134.4 to 135.6 °C for the second.

First: COc1ccc(/C=C(\C)C(=O)c2ccc(Cl)c(Cl)c2)c(OC)c1 [Compound 3f, (E)-1-(3,4-dichlorophenyl)-3-(2,4-dimethoxyphenyl)-2-methylprop-2-en-1-one]
Second: COc1cc(/C=C(\C)C(=O)c2ccc(Cl)c(Cl)c2)cc(OC)c1 [Compound 3h, (E)-1-(3,4-Dichlorophenyl)-3-(3,5-dimethoxyphenyl)-2-methylprop-2-en-1-one]
The melting point of the first is lower: 112.3 to 113.6 °C for the first, 157 to 158.1 °C for the second.

System: SiHa cells
Experiment: MTT anti-proliferation assay, SiHa
Type: cell-based, human
Settings: Homo sapiens, 48 h, mean ± SD
Protocol: (§1) All cell types, at a volume of 200 µL per well, were inoculated in 96-well plates at a density of 2.5 × 10^4 cells / mL and cultured for 24 h in an incubator with 5% CO2 at 37 °C. The old culture medium was replaced with 200 µL of fresh medium per well containing positive compounds, at concentrations of 1, 6.25, 12.5, 25, 50, and 100 μM. After 48 h of culture, 20 µL per well of 5 mg·mL^−1 MTT solution was added. After 4 h of culture, the old solution was discarded, and 150 µL per well of DMSO solution was added. Using an enzyme labeler (Thermo Fisher Scientific, Multiskan GO, Waltham, MA, USA), the plates were shaken for 10 min, OD values were determined at 490 nm, and the inhibition rate was calculated. Non-linear regression fitting of the cell growth rate was carried out using SPSS 23.0, and the IC50 of the compound was calculated. The inhibition rate was calculated using the formula: [(ODempty − ODtest)/(ODempty − ODnegative group)] × 100%, (ODempty blank group absorbance, ODtest absorbance of administration group, ODnegative group without cell culture medium). Each group contained six compound holes, and the experimental results averaged three trials. Complete medium containing only cells was used as the blank control; a complete medium without cells as was used as the negative control; and cisplatin, paclitaxel, and adriamycin were used as the positive controls. The concentration gradient was the same as that used for compounds 3a–3p.

Compared with `COc1cc(OC)c(OC)cc1/C=C(\C)C(=O)c1ccc(Cl)c(Cl)c1` [Compound 3a, (E)-1-(3,4-Dichlorophenyl)-2-methyl-3-(2,4,5-trimethoxyphenyl)prop-2-en-1-one], `COc1cc(OC)c(/C=C(\C)C(=O)c2ccc(Cl)c(Cl)c2)c(OC)c1` [Compound 3d, (E)-1-(3,4-Dichlorophenyl)-2-methyl-3-(2,4,6-trimethoxyphenyl)prop-2-en-1-one] is higher in IC50: 23.5 ± 4.55 µM for the first, over 100 µM for the second.

Going from `COc1ccc(/C=C(\C)C(=O)c2ccc(Cl)c(Cl)c2)c(OC)c1OC` [Compound 3c, (E)-1-(3,4-Dichlorophenyl)-2-methyl-3-(2,3,4-trimethoxyphenyl)prop-2-en-1-one] to `COc1cccc(/C=C(\C)C(=O)c2ccc(Cl)c(Cl)c2)c1OC` [Compound 3i, (E)-1-(3,4-Dichlorophenyl)-3-(2,3-dimethoxyphenyl)-2-methylprop-2-en-1-one], the IC50 rises from 41.8 ± 5.1 µM to over 100 µM. The first is the more potent here.

`COc1cc(OC)c(/C=C(\C)C(=O)c2ccc(Cl)cc2Cl)c(OC)c1` [Compound 3e, (E)-1-(2,4-dichlorophenyl)-2-methyl-3-(2,4,6-trimethoxyphenyl)prop-2-en-1-one] and `COc1cccc(OC)c1/C=C(\C)C(=O)c1ccc(Cl)c(Cl)c1` [Compound 3g, (E)-1-(3,4-dichlorophenyl)-3-(2,6-dimethoxyphenyl)-2-methylprop-2-en-1-one] cannot be ordered by IC50: over 100 µM for the first, over 100 µM for the second.

`COc1ccc(/C=C(\C)C(=O)c2ccc(Cl)c(Cl)c2)c(OC)c1` [Compound 3f, (E)-1-(3,4-dichlorophenyl)-3-(2,4-dimethoxyphenyl)-2-methylprop-2-en-1-one] and `COc1cc(/C=C(\C)C(=O)c2ccc(Cl)c(Cl)c2)cc(OC)c1` [Compound 3h, (E)-1-(3,4-Dichlorophenyl)-3-(3,5-dimethoxyphenyl)-2-methylprop-2-en-1-one] cannot be ordered by IC50: over 100 µM for the first, over 100 µM for the second.

System: human cervical epithelial cells H8
Experiment: MTT toxicity assay, normal cervical epithelial cells H8
Type: cell-based
Settings: Homo sapiens, Epithelial cell, 48 h, mean ± SD
Protocol: as §1

`COc1cc(OC)c(OC)cc1/C=C(\C)C(=O)c1ccc(Cl)c(Cl)c1` [Compound 3a, (E)-1-(3,4-Dichlorophenyl)-2-methyl-3-(2,4,5-trimethoxyphenyl)prop-2-en-1-one] and `COc1cc(OC)c(/C=C(\C)C(=O)c2ccc(Cl)c(Cl)c2)c(OC)c1` [Compound 3d, (E)-1-(3,4-Dichlorophenyl)-2-methyl-3-(2,4,6-trimethoxyphenyl)prop-2-en-1-one] cannot be ordered by IC50: over 100 µM for the first, over 100 µM for the second.

`COc1ccc(/C=C(\C)C(=O)c2ccc(Cl)c(Cl)c2)c(OC)c1OC` [Compound 3c, (E)-1-(3,4-Dichlorophenyl)-2-methyl-3-(2,3,4-trimethoxyphenyl)prop-2-en-1-one] and `COc1cccc(/C=C(\C)C(=O)c2ccc(Cl)c(Cl)c2)c1OC` [Compound 3i, (E)-1-(3,4-Dichlorophenyl)-3-(2,3-dimethoxyphenyl)-2-methylprop-2-en-1-one] cannot be ordered by IC50: over 100 µM for the first, over 100 µM for the second.

`COc1cc(OC)c(/C=C(\C)C(=O)c2ccc(Cl)cc2Cl)c(OC)c1` [Compound 3e, (E)-1-(2,4-dichlorophenyl)-2-methyl-3-(2,4,6-trimethoxyphenyl)prop-2-en-1-one] and `COc1cccc(OC)c1/C=C(\C)C(=O)c1ccc(Cl)c(Cl)c1` [Compound 3g, (E)-1-(3,4-dichlorophenyl)-3-(2,6-dimethoxyphenyl)-2-methylprop-2-en-1-one] cannot be ordered by IC50: over 100 µM for the first, over 100 µM for the second.

`COc1ccc(/C=C(\C)C(=O)c2ccc(Cl)c(Cl)c2)c(OC)c1` [Compound 3f, (E)-1-(3,4-dichlorophenyl)-3-(2,4-dimethoxyphenyl)-2-methylprop-2-en-1-one] and `COc1cc(/C=C(\C)C(=O)c2ccc(Cl)c(Cl)c2)cc(OC)c1` [Compound 3h, (E)-1-(3,4-Dichlorophenyl)-3-(3,5-dimethoxyphenyl)-2-methylprop-2-en-1-one] cannot be ordered by IC50: over 100 µM for the first, over 100 µM for the second.

System: HeLa cells
Experiment: MTT anti-proliferation assay, HeLa
Type: cell-based, human
Settings: Homo sapiens, 48 h, mean ± SD
Protocol: as §1, with “3a–3p. […]” for “3a–3p.”

First: COc1cc(OC)c(OC)cc1/C=C(\C)C(=O)c1ccc(Cl)c(Cl)c1 [Compound 3a, (E)-1-(3,4-Dichlorophenyl)-2-methyl-3-(2,4,5-trimethoxyphenyl)prop-2-en-1-one]
Second: COc1cc(OC)c(/C=C(\C)C(=O)c2ccc(Cl)c(Cl)c2)c(OC)c1 [Compound 3d, (E)-1-(3,4-Dichlorophenyl)-2-methyl-3-(2,4,6-trimethoxyphenyl)prop-2-en-1-one]
The IC50 of the first is higher: over 100 µM for the first, 97.6 ± 7.61 µM for the second. The second is the more potent here.

`COc1ccc(/C=C(\C)C(=O)c2ccc(Cl)c(Cl)c2)c(OC)c1OC` [Compound 3c, (E)-1-(3,4-Dichlorophenyl)-2-methyl-3-(2,3,4-trimethoxyphenyl)prop-2-en-1-one] and `COc1cccc(/C=C(\C)C(=O)c2ccc(Cl)c(Cl)c2)c1OC` [Compound 3i, (E)-1-(3,4-Dichlorophenyl)-3-(2,3-dimethoxyphenyl)-2-methylprop-2-en-1-one] cannot be ordered by IC50: over 100 µM for the first, over 100 µM for the second.

Going from `COc1cc(OC)c(/C=C(\C)C(=O)c2ccc(Cl)cc2Cl)c(OC)c1` [Compound 3e, (E)-1-(2,4-dichlorophenyl)-2-methyl-3-(2,4,6-trimethoxyphenyl)prop-2-en-1-one] to `COc1cccc(OC)c1/C=C(\C)C(=O)c1ccc(Cl)c(Cl)c1` [Compound 3g, (E)-1-(3,4-dichlorophenyl)-3-(2,6-dimethoxyphenyl)-2-methylprop-2-en-1-one], the IC50 falls from over 100 µM to 56.1 ± 4.58 µM. The second is the more potent here.

`COc1ccc(/C=C(\C)C(=O)c2ccc(Cl)c(Cl)c2)c(OC)c1` [Compound 3f, (E)-1-(3,4-dichlorophenyl)-3-(2,4-dimethoxyphenyl)-2-methylprop-2-en-1-one] and `COc1cc(/C=C(\C)C(=O)c2ccc(Cl)c(Cl)c2)cc(OC)c1` [Compound 3h, (E)-1-(3,4-Dichlorophenyl)-3-(3,5-dimethoxyphenyl)-2-methylprop-2-en-1-one] cannot be ordered by IC50: over 100 µM for the first, over 100 µM for the second.

System: C33A cells
Experiment: MTT anti-proliferation assay, C33A
Type: cell-based, human
Settings: Homo sapiens, C-33-A, 48 h, mean ± SD
Protocol: as §1

`COc1cc(OC)c(OC)cc1/C=C(\C)C(=O)c1ccc(Cl)c(Cl)c1` [Compound 3a, (E)-1-(3,4-Dichlorophenyl)-2-methyl-3-(2,4,5-trimethoxyphenyl)prop-2-en-1-one] and `COc1cc(OC)c(/C=C(\C)C(=O)c2ccc(Cl)c(Cl)c2)c(OC)c1` [Compound 3d, (E)-1-(3,4-Dichlorophenyl)-2-methyl-3-(2,4,6-trimethoxyphenyl)prop-2-en-1-one] are within error of each other in IC50: 69.9 ± 7.18 µM for the first, 63.7 ± 2.59 µM for the second.

`COc1ccc(/C=C(\C)C(=O)c2ccc(Cl)c(Cl)c2)c(OC)c1OC` [Compound 3c, (E)-1-(3,4-Dichlorophenyl)-2-methyl-3-(2,3,4-trimethoxyphenyl)prop-2-en-1-one] and `COc1cccc(/C=C(\C)C(=O)c2ccc(Cl)c(Cl)c2)c1OC` [Compound 3i, (E)-1-(3,4-Dichlorophenyl)-3-(2,3-dimethoxyphenyl)-2-methylprop-2-en-1-one] are within error of each other in IC50: 33.9 ± 4.99 µM for the first, 30.7 ± 8.84 µM for the second.

Compared with `COc1cc(OC)c(/C=C(\C)C(=O)c2ccc(Cl)cc2Cl)c(OC)c1` [Compound 3e, (E)-1-(2,4-dichlorophenyl)-2-methyl-3-(2,4,6-trimethoxyphenyl)prop-2-en-1-one], `COc1cccc(OC)c1/C=C(\C)C(=O)c1ccc(Cl)c(Cl)c1` [Compound 3g, (E)-1-(3,4-dichlorophenyl)-3-(2,6-dimethoxyphenyl)-2-methylprop-2-en-1-one] is lower in IC50: over 100 µM for the first, 44.8 ± 2.85 µM for the second. The second is the more potent here.

Going from `COc1ccc(/C=C(\C)C(=O)c2ccc(Cl)c(Cl)c2)c(OC)c1` [Compound 3f, (E)-1-(3,4-dichlorophenyl)-3-(2,4-dimethoxyphenyl)-2-methylprop-2-en-1-one] to `COc1cc(/C=C(\C)C(=O)c2ccc(Cl)c(Cl)c2)cc(OC)c1` [Compound 3h, (E)-1-(3,4-Dichlorophenyl)-3-(3,5-dimethoxyphenyl)-2-methylprop-2-en-1-one], the IC50 rises from 23.7 ± 4.07 µM to 54.4 ± 11.5 µM (2.3-fold). The first is the more potent here.
